Where two headings read alike, the source gives them in different places.
Experiments:
Junin virus = system: Junin virus; parameters: species or system guinea pigs; details: guinea pig, in vivo
rJunin (rRomero) virus = system: rJunin (rRomero) virus; parameters: species or system guinea pigs; details: guinea pig, in vivo
Lassa (Josiah) virus = system: Lassa (Josiah) virus; parameters: species or system guinea pigs; details: guinea pig, in vivo
[1] = Pharmacokinetics and tolerability in guinea pigs (Example 1); details: 50 mg/kg PO, blood by vena cava bleed

Row | Compound | average weight loss (Junin virus) [%] | survival rate (Junin virus) [%] | temperature findings (febrile, hypothermic) (Junin virus) | (highest) average weight loss (rJunin (rRomero) virus) [%] | survival rate (rJunin (rRomero) virus) [%] | temperature findings (febrile, hypothermic) (rJunin (rRomero) virus) | (highest) average weight loss (Lassa (Josiah) virus) [%] | temperature findings (febrile, hypothermic) (Lassa (Josiah) virus) | adequacy of the dose according to the pharmacokinetic results [1] | animals surviving to the end of study (Lassa (Josiah) virus) | also measured
1 | CCOc1cc(C(CS(C)(=O)=O)N2Cc3cccc(NC(=O)C4CC4)c3C2=O)ccc1OC (stereo not drawn) [Compound B, N-(2-(1-(3-ethoxy-4-methoxyphenyl)-2-(methylsulfonyl)ethyl)-3-oxoisoindolin-4-yl)cyclopropanecarboxamide] | 4.4 | 17 | Most of the animals in this group were febrile starting at day +7 but none were recorded as hypothermic | 12.41 | 11 | All of the animals in this group except the survivor were febrile starting day +7 thru +11 and four were recorded as hypothermic before death | 13.08 | All of the animals in this group except the survivor were febrile starting day +8 thru +16 and only one was recorded as hypothermic before death | needed to be increased | – | survival rate (Lassa (Josiah) virus): 13%
2 | NC(=O)c1ncn([C@@H]2O[C@H](CO)[C@@H](O)[C@H]2O)n1 [Ribavirin, reference compound] | – | – | Only 1 animal was febrile on day +27 | – | – | Only one animal was intermittently febrile between days +16 and +27 | – | Only one of the two animals that died was febrile once on day +17 | – | only one animal survived | animals surviving to the end of study (Junin virus): all 3 animals survived; weight loss up to (Junin virus): up to 5.2%; animals surviving to the end of study (rJunin (rRomero) virus): all 3 animals survived; weight loss of the intermittently febrile animal (rJunin (rRomero) virus): 17.67%; weight loss up to (rJunin (rRomero) virus): up to 3.09%; average group weight loss up to (Lassa (Josiah) virus): up to 15.39%
3 | COc1ccc(C(CC(N)=O)N2Cc3ccccc3C2=O)cc1OC (stereo not drawn) [Compound A, 3-(3,4-dimethoxy-phenyl)-3-(1-oxo-1,3-dihydro-isoindol-2-yl)-propionamide] | 0.69 | 50 | All animals that died were febrile between day +7 and +10 and two were hypothermic on day +14 | 1.33 | 33 | All animals that died were febrile between day +7 and +15 and four out of six were hypothermic before death | 12.17 | All animals were febrile between day +7 and +19 and two were hypothermic before death | within range | None of the animals survived | (highest) average weight loss (rJunin (rRomero) virus; po, 50 mg/kg): 5.89%; survival rate (rJunin (rRomero) virus; po, 50 mg/kg): 22%; temperature findings (febrile, hypothermic) (rJunin (rRomero) virus; po, 50 mg/kg): All animals that died were febrile between day +5 and +13 and three out of seven were hypothermic before death; (highest) average weight loss (Lassa (Josiah) virus; po, 50 mg/kg): 5.36%; survival rate (Lassa (Josiah) virus; po, 50 mg/kg): 44%; temperature findings (febrile, hypothermic) (Lassa (Josiah) virus; po, 50 mg/kg): All animals, including the survivors, were febrile between day +7 and +17 and none of the animals were hypothermic before death
